Tests used:
Assay in all cases: combination Emax (second highest fraction inhibited in the dose matrix, 72 h); higher = more inhibition; extreme values may be limits of the assay
ACHN (Kidney Carcinoma) = test system: ACHN (Kidney Carcinoma)
Outline: (§1)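 After 24 hours at 37°C and 5% CO2 in 1536-well plates, cells in DMEM/F12 or RPMI plus 10% FBS received two-drug dose matrices for 72 hours. Viability came from CellTiter-Glo 2.0 luminescence and was scaled as inhibition, anchored at 0 by vehicle wells and at 1 by blank wells. Combination Emax is taken as the second-highest inhibition in the matrix, and Bliss excess as the observed combination effect less EA + EB − EA·EB, with EA and EB the single-agent effects.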

[1] = test system: RF-48 (B-Cell Non-Hodgkin's Lymphoma)
Outline: as §1

[2] = test system: KYSE-450 (Esophageal Squamous Cell Carcinoma)
Outline: as §1

YH-13 (Glioblastoma) = test system: YH-13 (Glioblastoma)
Outline: as §1

[3] = test system: MIA-PaCa-2 (Pancreatic Carcinoma)
Outline: as §1

[4] = test system: KARPAS-299 (T-Cell Non-Hodgkin's Lymphoma)
Outline: as §1

TGW (Neuroblastoma) = test system: TGW (Neuroblastoma)
Outline: as §1

[5] = test system: PANC-04-03 (Pancreatic Carcinoma)
Outline: as §1

[6] = test system: LU-65 (Non-Small Cell Lung Carcinoma)
Outline: as §1

[7] = test system: Caov-4 (Ovarian Carcinoma)
Outline: as §1

[8] = test system: Ca9-22 (Head and Neck Carcinoma)
Outline: as §1

EW-24 (Ewing's Sarcoma) = test system: EW-24 (Ewing's Sarcoma)
Outline: as §1

| Compound | combination Emax (ACHN (Kidney Carcinoma)) | combination Emax [1] | combination Emax [2] | combination Emax (YH-13 (Glioblastoma)) | combination Emax [3] | combination Emax [4] | combination Emax (TGW (Neuroblastoma)) | combination Emax [5] | combination Emax [6] | combination Emax [7] | combination Emax [8] | combination Emax (EW-24 (Ewing's Sarcoma)) |
| --- | --- | --- | --- | --- | --- | --- | --- | --- | --- | --- | --- | --- |
| C=CCn1c(=O)c2cnc(Nc3ccc(N4CCN(C)CC4)cc3)nc2n1-c1cccc(C(C)(C)O)n1 [AZD1775] + CCc1c2c(nc3ccc(O)cc13)-c1cc3c(c(=O)n1C2)COC(=O)[C@]3(O)CC [SN-38] (first compound max 1 µM, partner max 0.3 µM) | 0.946 | 0.783 | 0.951 | 0.741 | 0.969 | 0.971 | 0.728 | 0.617 | 0.944 | 0.905 | 0.965 | 0.782 |
| C=CCn1c(=O)c2cnc(Nc3ccc(N4CCN(C)CC4)cc3)nc2n1-c1cccc(C(C)(C)O)n1 [AZD1775] + Nc1ccn([C@@H]2O[C@H](CO)[C@@H](O)C2(F)F)c(=O)n1 [Gemcitabine] (first compound max 1 µM, partner max 0.3 µM) | 0.853 | 0.727 | 0.875 | 0.662 | 0.947 | 0.976 | 0.809 | 0.526 | 0.848 | 0.837 | 0.834 | 0.658 |
| CN(CCO)CC[C@H](CSc1ccccc1)Nc1ccc(S(=O)(=O)NC(=O)c2ccc(N3CCC([C@@H](O)c4ccccc4-c4ccc(Cl)cc4)CC3)cc2)cc1S(=O)(=O)C(F)(F)F [AZD4320] + CS(=O)(=O)CCNCc1ccc(-c2ccc3ncnc(Nc4ccc(OCc5cccc(F)c5)c(Cl)c4)c3c2)o1 [Lapatinib] (first compound max 1 µM, 7x7, partner max 10 µM) | 0.466 | 0.874 | 0.41 | 0.603 | 0.832 | 0.204 | 1 | 0.313 | 0.368 | 0.955 | 0.974 | 0.931 |
| Cc1c2c(nn1C)CSCc1cc(n(C)n1)CSc1cc(c3ccccc3c1)OCCCc1c(C(=O)O)n(C)c3c-2c(Cl)ccc13 [AZD5991] + CC(=O)O[C@H]1C(=O)[C@@]2(C)[C@H]([C@H](OC(=O)c3ccccc3)[C@]3(O)C[C@H](OC(=O)[C@H](O)[C@@H](NC(=O)c4ccccc4)c4ccccc4)C(C)=C1C3(C)C)[C@]1(OC(C)=O)CO[C@@H]1C[C@@H]2O [Paclitaxel] (first compound max 1 µM, 7x7, partner max 3 µM) | 0.604 | 0.807 | 0.847 | 0.994 | 0.807 | 1 | 0.955 | 0.52 | 0.752 | 0.833 | 0.963 | 0.734 |
| Cc1c2c(nn1C)CSCc1cc(n(C)n1)CSc1cc(c3ccccc3c1)OCCCc1c(C(=O)O)n(C)c3c-2c(Cl)ccc13 [AZD5991] + CS(=O)(=O)CCNCc1ccc(-c2ccc3ncnc(Nc4ccc(OCc5cccc(F)c5)c(Cl)c4)c3c2)o1 [Lapatinib] (first compound max 1 µM, 7x7, partner max 10 µM) | 0.481 | 0.244 | 0.541 | 0.186 | 0.496 | 0.952 | 0.312 | 0.343 | 0.332 | 0.891 | 0.933 | 0.32 |
| Cc1c2c(nn1C)CSCc1cc(n(C)n1)CSc1cc(c3ccccc3c1)OCCCc1c(C(=O)O)n(C)c3c-2c(Cl)ccc13 [AZD5991] + Nc1ccn([C@@H]2O[C@H](CO)[C@@H](O)C2(F)F)c(=O)n1 [Gemcitabine] (first compound max 1 µM, 7x7, partner max 0.3 µM) | 0.744 | 0.679 | 0.459 | 0.574 | 0.85 | 0.979 | 0.621 | 0.548 | 0.627 | 0.83 | 0.68 | 0.672 |
| C[C@@H]1COCCN1c1cc(C2([S@](C)(=N)=O)CC2)nc(-c2ccnc3[nH]ccc23)n1 [AZD6738] + C1CC(C1)(C(=O)[O-])C(=O)[O-].N.N.[Pt+2] [Carboplatin] (first compound max 10 µM, 7x7, partner max 10 µM) | 0.819 | 0.329 | 0.312 | 0.576 | 0.547 | 0.926 | 0.574 | 0.455 | 0.703 | 0.813 | 0.895 | 0.703 |
| C[C@@H]1COCCN1c1cc(C2([S@](C)(=N)=O)CC2)nc(-c2ccnc3[nH]ccc23)n1 [AZD6738] + Nc1ccn([C@@H]2O[C@H](CO)[C@@H](O)C2(F)F)c(=O)n1 [Gemcitabine] (first compound max 10 µM, 7x7, partner max 0.3 µM) | 0.875 | 0.77 | 0.862 | 0.865 | 0.947 | 0.997 | 0.897 | 0.627 | 0.848 | 0.894 | 0.923 | 0.8 |
| C[C@@H](Nc1cc(F)cc(F)c1)c1cc(C(=O)N(C)C)cc2c(=O)cc(N3CCOCC3)oc12 [AZD8186] + C1CN(CCC1(C(=O)N[C@@H](CCO)C2=CC=C(C=C2)Cl)N)C3=NC=NC4=C3C=CN4 [AZD5363] (first compound max 10 µM, 7x7, partner max 10 µM) | 0.414 | 0.432 | 0.31 | 0.644 | 0.258 | 0.263 | 0.258 | 0.275 | 0.615 | 0.309 | 0.296 | 0.447 |
| C[C@@H](Nc1cc(F)cc(F)c1)c1cc(C(=O)N(C)C)cc2c(=O)cc(N3CCOCC3)oc12 [AZD8186] + CC(=O)c1c(C)c2cnc(Nc3ccc(N4CCNCC4)cn3)nc2n(C2CCCC2)c1=O [Palbociclib] (first compound max 10 µM, 7x7, partner max 10 µM) | 0.661 | 0.4 | 0.378 | 0.692 | 0.471 | 0.345 | 0.32 | 0.344 | 0.312 | 0.29 | 0.368 | 0.563 |
| C[C@@H](Oc1cc(-c2cnn(C3CCNCC3)c2)cnc1N)c1c(Cl)ccc(F)c1Cl [Crizotinib] + CC1=C(C(=CC=C1)Cl)NC(=O)C2=CN=C(S2)NC3=CC(=NC(=N3)C)N4CCN(CC4)CCO [Dasatinib] (first compound max 10 µM, 7x7, partner max 2 µM) | 0.756 | 0.365 | 0.567 | 0.978 | 0.608 | 0.888 | 0.677 | 0.529 | 0.852 | 0.414 | 0.952 | 0.738 |
| C[C@@H](Oc1cc(-c2cnn(C3CCNCC3)c2)cnc1N)c1c(Cl)ccc(F)c1Cl [Crizotinib] + Cn1cnc2c(F)c(Nc3ccc(Br)cc3Cl)c(C(=O)NOCCO)cc21 [Selumetinib] (first compound max 10 µM, 7x7, partner max 10 µM) | 0.572 | 0.306 | 0.381 | 0.446 | 0.763 | 0.895 | 0.69 | 0.631 | 0.974 | 0.552 | 0.542 | 0.545 |
| CS(=O)(=O)CCNCc1ccc(-c2ccc3ncnc(Nc4ccc(OCc5cccc(F)c5)c(Cl)c4)c3c2)o1 [Lapatinib] + Cn1cnc2c(F)c(Nc3ccc(Br)cc3Cl)c(C(=O)NOCCO)cc21 [Selumetinib] (first compound max 10 µM, 7x7, partner max 10 µM) | 0.577 | 0.275 | 0.41 | 0.209 | 0.57 | 0.446 | 0.207 | 0.77 | 0.701 | 0.694 | 0.845 | 0.222 |
| O=C(c1cc(Cc2n[nH]c(=O)c3ccccc23)ccc1F)N1CCN(C(=O)C2CC2)CC1 [Olaparib] + CC1(C)CCC(CN2CCN(c3ccc(C(=O)NS(=O)(=O)c4ccc(NCC5CCOCC5)c([N+](=O)[O-])c4)c(Oc4cnc5[nH]ccc5c4)c3)CC2)=C(c2ccc(Cl)cc2)C1 [Venetoclax] (first compound max 10 µM, 7x7, partner max 1 µM) | 0.143 | 0.606 | 0.0027 | 0.195 | 0.209 | 0.306 | 0.429 | 0.176 | 0.164 | 0.137 | 0.229 | 0.195 |
| O=C(c1cc(Cc2n[nH]c(=O)c3ccccc23)ccc1F)N1CCN(C(=O)C2CC2)CC1 [Olaparib] + CN(CC[C@H](CSC1=CC=CC=C1)NC2=C(C=C(C=C2)S(=O)(=O)NC(=O)C3=CC=C(C=C3)N4CCC(CC4)[C@H](C5=CC=CC=C5C6=CC=C(C=C6)Cl)O)S(=O)(=O)C(F)(F)F)CCO [AZD4320] (first compound max 10 µM, 7x7, partner max 1 µM) | 0.154 | 0.926 | 0.0781 | 0.401 | 0.184 | 0.432 | 0.925 | 0.121 | 0.194 | 0.181 | 0.349 | 0.606 |

From the supplement of paper PMC11061612
